SMILES strings stand for the structures.

One assay has as its system genotype A, "Long" strain RSV. In words: RSV-A assay: CPE protection in HEp-2 cells, ATPlite readout. The class given is cell-based, human respiratory syncytial virus. The note with it: HEp-2 cells, RSV-A Long strain, ATPlite readout; read-out: Human RSV-A (“Long” strain) EC50. An outline of the steps: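 EC50 derives from ATPlite luminescence after 5-day culture of RSV Long-infected (MOI 0.1) HEp-2 cells, seeded 8,000/well, exposed to duplicate 2-fold compound series. CC50 comes from an identical plate receiving medium instead of virus.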
For `O=C1Nc2ccccc2C(c2ccccc2)=N[C@@H]1Nc1nnc(-c2ncc(C(F)(F)F)cc2N[C@@H]2CC[C@@H]2O)o1` [Example 418], the EC50 is greater than 800 nM.
On the same count and under the same terms, the same measure for `O=C1Nc2ccccc2C(c2ccccc2)=NC1Nc1nnc(-c2ccc(F)nc2N2CCOCC2)o1` (stereo not shown) [Example 149]: 400 to 800 nM.

Still in this assay, the particulars now being: human respiratory syncytial virus, HEp-2, read-out: Human RSV-A (“Long” strain) EC50.
On to `O=C1Nc2ccccc2C(c2ccccc2)=NC1Nc1ncc(-c2ccc(F)cc2)o1` (stereo not shown) [Example 369], for which the EC50 is greater than 800 nM.
On the same count and under the same terms, the result for `O=C1Nc2ccccc2C(c2ccccc2)=N[C@@H]1Nc1nnc(-c2ncc(C(F)(F)F)cc2N[C@@H]2CCOC2)o1` [Example 464] reads less than 400 nM; that for `COC1CN(c2ncccc2-c2nnc(NC3N=C(c4ccccc4)c4ccccc4NC3=O)o2)C1` (stereo not shown) [Example 258], greater than 800 nM; that for `COCc1nnc(NC2N=C(c3ccccc3)c3ccccc3NC2=O)o1` (stereo not shown) [Example 191], greater than 800 nM.
The same measure, in the same setting: the result for `O=C1Nc2ccccc2C(c2ccccc2)=NC1Nc1nnc([C@H]2CCCO2)o1` (stereo partly shown) [Example 198] reads greater than 800 nM; that for `COc1cc(-c2nnc(NC3N=C(c4ccccc4)c4ccccc4NC3=O)o2)ccn1` (stereo not shown) [Example 56], greater than 800 nM; that for `O=C1Nc2ccccc2C(c2ccccc2)=N[C@@H]1Nc1nnc(-c2ccc(F)cc2N2CCOCC2)o1` [Example 159], less than 400 nM.
Regarding `Cn1cc(-c2nc(-c3nnc(N[C@H]4N=C(c5ccccc5)c5ccccc5NC4=O)o3)c(N3CCOCC3)s2)cn1` [Example 399], the EC50 was less than 400 nM.
In the case of `O=C1Nc2ccccc2C(c2ccccc2)=N[C@@H]1Nc1nnc(-c2nc(-c3ccc(F)cc3)sc2N2CCOCC2)o1` [Example 428], the EC50 is less than 400 nM.
Consider `O=C1Nc2ccccc2C(c2ccccc2)=N[C@@H]1Nc1nnc(-c2nc(-c3ccccc3F)sc2N2CCOCC2)o1` [Example 427], for which the EC50 was less than 400 nM.
Same read-out and setting: the same measure for `COc1cc(-c2nnc(NC3N=C(c4ccccc4)c4ccccc4NC3=O)o2)ccc1-n1cnc(C)c1` (stereo not shown) [Example 219]: greater than 800 nM; for `O=C1Nc2c(F)cccc2C(c2ccccc2)=N[C@H]1Nc1nnc(-c2ccccc2N2CCOCC2)o1` [Example 355b]: greater than 800 nM.
Same read-out and setting: the result for `O=C1Nc2ccccc2C(c2ccccc2)=NC1Nc1nnc(-c2cnccc2N2CCOCC2)o1` (stereo not shown) [Example 133] reads 400 to 800 nM; that for `O=C1Nc2ccccc2C(c2ccccc2)=NC1Nc1nnc(-c2ccncc2N2CCCCC2)o1` (stereo not shown) [Example 141], greater than 800 nM.
`C#Cc1nc(-c2nnc(N[C@H]3N=C(c4ccccc4)c4ccccc4NC3=O)o2)c(N2CCOCC2)s1` [Example 406]: the EC50 is less than 400 nM.
Still for that read-out and setting: the result for `O=C1Nc2ccccc2C(c2ccccc2)=NC1Nc1nnc(-c2cccnc2N2CC(F)(F)C2)o1` (stereo not shown) [Example 259] reads greater than 800 nM; that for `O=C1Nc2ccccc2C(c2ccccc2)=N[C@@H]1Nc1nnc(-c2ncc(C(F)(F)F)cc2NC2COC2)o1` [Example 469], less than 400 nM; that for `Cc1nc(-c2nnc(N[C@H]3N=C(c4ccccc4)c4ccccc4NC3=O)o2)cs1` [Example 343], greater than 800 nM.
Regarding `COCCc1cccn2ncc(-c3nnc(N[C@H]4N=C(c5ccccc5)c5ccccc5NC4=O)o3)c12` [Example 411], the EC50 is greater than 800 nM.
The same measure, in the same setting: the same measure for `O=C1Nc2ccccc2C(c2ccccc2)=N[C@@H]1Nc1nnc(-c2nc(C3(C(F)(F)F)CC3)sc2N2CCOCC2)o1` [Example 460]: less than 400 nM; for `COC1CN(c2cc(C(F)(F)F)cnc2-c2nnc(N[C@H]3N=C(c4ccccc4)c4ccccc4NC3=O)o2)C1` [Example 271]: greater than 800 nM; for `COC[C@@H](C)Nc1sc(C(F)(F)F)nc1-c1nnc(N[C@H]2N=C(c3ccccc3)c3ccccc3NC2=O)o1` [Example 451]: 400 to 800 nM.
Regarding `O=C1Nc2ccccc2C(c2ccccc2)=N[C@@H]1Nc1nnc(-c2ncc(C3CCCCC3)cc2N2CCOCC2)o1` [Example 313], the EC50 was less than 400 nM.
On the same count and under the same terms, the same measure for `O=C1Nc2ccccc2C(c2ccccc2)=NC1Nc1nnc(-c2ccc(-n3cncn3)cc2N2CCOCC2)o1` (stereo not shown) [Example 128]: 400 to 800 nM.
For `CN(C)CCOc1ccccc1-c1nnc(NC2N=C(c3ccccc3)c3ccccc3NC2=O)o1` (stereo not shown) [Example 234], the EC50 was greater than 800 nM.
For the compound `O=C1Nc2ccccc2C(c2ccccc2)=NC1Nc1nnc(C2CCOC2)o1` (stereo not shown) [Example 215], the EC50 was greater than 800 nM.
`N#Cc1ccc(-c2nnc(N[C@H]3N=C(c4ccccc4)c4ccccc4NC3=O)o2)c(N2CCOCC2)c1` [Example 157]: the EC50 was less than 400 nM.
Consider `C[C@@H]1CN(c2cc(C#N)cnc2-c2nnc(N[C@H]3N=C(c4ccccc4)c4ccccc4NC3=O)o2)CCO1` [Example 326], for which the half-maximal effective concentration (EC50) fell in the range of 400 to 800 nM.
For `CN1CCN(c2cc(C(F)(F)F)cnc2-c2nnc(N[C@H]3N=C(c4ccccc4)c4ccccc4NC3=O)o2)CC1=O` [Example 296], the EC50 is greater than 800 nM.
Same read-out and setting: the same measure for `O=C1Nc2ccccc2C(c2ccccc2)=NC1Nc1nnc(CCC(F)(F)F)o1` (stereo not shown) [Example 192]: greater than 800 nM; for `O=C1Nc2ccccc2C(c2ccccc2)=N[C@@H]1Nc1nnc(-c2oc3ncccc3c2N2CCOCC2)o1` [Example 404]: less than 400 nM.
Same read-out and setting: the same measure for `CC1(c2nnc(NC3N=C(c4ccccc4)c4ccccc4NC3=O)o2)CC1` (stereo not shown) [Example 195]: greater than 800 nM.
Still for that read-out and setting: the result for `O=C1Nc2ccccc2C(c2ccccc2)=NC1Nc1nnc(-c2ccc(N3CCOCC3)c(F)c2)o1` (stereo not shown) [Example 112] reads greater than 800 nM; that for `O=C1Nc2ccccc2C(c2ccccc2)=NC1Nc1nnc(C2CC(F)(F)C2)o1` (stereo not shown) [Example 214], greater than 800 nM; that for `O=C1Nc2ccccc2C(c2ccccc2)=NC1Nc1nnc(CCc2ccccc2)o1` (stereo not shown) [Example 199], greater than 800 nM.
`O=C1Nc2ccccc2C(c2ccccc2)=N[C@@H]1Nc1nnc(-c2ccc(=O)[nH]c2N2CCOCC2)o1` [Example 156, (S)-3-((5-(2-morpholino-6-oxo-1,6-dihydropyridin-3-yl)-1,3,4-oxadiazol-2-yl)amino)-5-phenyl-1,3-dihydro-2H-benzo[e][1,4]diazepin-2-one]: the EC50 is greater than 800 nM.
Same read-out and setting: the result for `O=C1Nc2ccccc2C(c2ccccc2)=N[C@@H]1Nc1nnc(-c2ccc(N3CCOCC3)cc2F)o1` [Example 126a] reads less than 400 nM; that for `O=C1Nc2ccccc2C(c2ccccc2)=N[C@@H]1Nc1nnc(-c2ncc(C(F)(F)F)cc2N2CCOc3ccccc32)o1` [Example 468], greater than 800 nM.
On the same count and under the same terms, the result for `C[C@@H]1CN(c2cc(F)ccc2-c2nnc(N[C@H]3N=C(c4ccccc4)c4ccccc4NC3=O)o2)C[C@H](C)O1` [Example 284] reads greater than 800 nM; that for `O=C1Nc2ccccc2C(c2ccccc2)=NC1Nc1nnc(-c2cccc(N3CCOCC3)c2)o1` (stereo not shown) [Example 111], greater than 800 nM; that for `CN(C)c1cc(C(F)(F)F)cnc1-c1nnc(N[C@H]2N=C(c3ccccc3)c3ccccc3NC2=O)o1` [Example 302], greater than 800 nM.
`CO[C@H]1CCN(c2ncccc2-c2nnc(NC3N=C(c4ccccc4)c4ccccc4NC3=O)o2)C1` (stereo partly shown) [Example 247]: the EC50 is greater than 800 nM.
The same measure, in the same setting: the result for `O=C1Nc2ccccc2C(c2ccccc2)=N[C@@H]1Nc1nnc(-c2nc(C3(C(F)(F)F)CCC3)sc2N2CCOCC2)o1` [Example 490] reads less than 400 nM.
Same read-out and setting: the same measure for `O=C1Nc2ccccc2C(c2ccccc2)=NC1Nc1cc(-c2ccccc2)cnn1` (stereo not shown) [Example 462]: greater than 800 nM; for `O=C1Nc2ccccc2C(c2ccccc2)=N[C@@H]1Nc1nnc(-c2nnsc2N2CCOCC2)o1` [Example 292]: less than 400 nM.
On the same count and under the same terms, the same measure for `Cn1ncc(-c2nnc(N[C@H]3N=C(c4ccccc4)c4ccccc4NC3=O)o2)c1N1CCOCC1` [Example 177]: greater than 800 nM; for `O=C1Nc2ccccc2C(c2ccccc2)=N[C@@H]1Nc1nnc(-c2nc3ccccn3c2N2CCOCC2)o1` [Example 163]: greater than 800 nM.
On to `N#Cc1cnc(N2CCOCC2)c(-c2nnc(N[C@H]3N=C(c4ccccc4)c4ccccc4NC3=O)o2)c1` [Example 174], for which the EC50 is less than 400 nM.
Still for that read-out and setting: the result for `N#Cc1ccc(-c2nnc(NC3N=C(c4ccccc4)c4ccccc4NC3=O)o2)nc1` (stereo not shown) [Example 24] reads 400 to 800 nM; that for `O=C1Nc2ccccc2C(c2ccccc2)=N[C@@H]1Nc1nnc(-c2ncc(C(F)(F)F)cc2N2CCC(O)CC2)o1` [Example 328], greater than 800 nM.
The same measure, in the same setting: the result for `Cn1nnc(-c2ccc(-c3nnc(NC4N=C(c5ccccc5)c5ccccc5NC4=O)o3)cc2)n1` (stereo not shown) [Example 186] reads greater than 800 nM.
Consider `O=C1Nc2ccccc2C(c2ccccc2)=N[C@@H]1Nc1nnc(-c2ncc(C3CC3)cc2N2CC3CCC(C2)O3)o1` [Example 321], for which the EC50 is less than 400 nM.
`O=C1Nc2ccccc2C(c2ccccc2)=NC1Nc1nnc(-c2ccccc2OC2CCOCC2)o1` (stereo not shown) [Example 239]: the EC50 was greater than 800 nM.
Consider `CO[C@@H]1COC[C@H]1Nc1cc(C(F)(F)F)cnc1-c1nnc(N[C@H]2N=C(c3ccccc3)c3ccccc3NC2=O)o1` [Example 436], for which the EC50 was less than 400 nM.
On to `O=C1Nc2ccccc2C(c2ccccc2)=NC1Nc1nnc(-c2cccnc2N2C3CCC2COC3)o1` (stereo not shown) [Example 265], for which the EC50 was greater than 800 nM.
Consider `CN1CCN(c2ncccc2-c2nnc(NC3N=C(c4ccccc4)c4ccccc4NC3=O)o2)CC1` (stereo not shown) [Example 237], for which the EC50 was greater than 800 nM.
Same read-out and setting: the same measure for `O=C1Nc2ccccc2C(c2ccccc2)=N[C@@H]1Nc1nnc(-c2nc(C(F)(F)F)sc2NCC2COC2)o1` [Example 475]: 400 to 800 nM.
As to `O=C1Nc2ccccc2C(c2ccccc2)=NC1Nc1nnc(-c2ccc(-n3ccnc3)nc2)o1` (stereo not shown) [Example 232], the EC50 was greater than 800 nM.
The same measure, in the same setting: the result for `O=C1Nc2ccccc2C(c2ccccc2)=NC1Nc1nnc(-c2cccnc2N2CC3CCC(C2)O3)o1` (stereo not shown) [Example 266] reads 400 to 800 nM; that for `O=C1Nc2ccccc2C(c2ccccc2)=NC1Nc1nnc(-c2ccc(-n3cnnc3)cc2)o1` (stereo not shown) [Example 233], greater than 800 nM; that for `O=C1Nc2ccccc2C(c2ccccc2)=N[C@@H]1Nc1nnc(-c2cc(C(F)(F)F)sc2N2CCOCC2)o1` [Example 383], less than 400 nM.
For `COCc1ccc2nccc(-c3nnc(N[C@H]4N=C(c5ccccc5)c5ccccc5NC4=O)o3)c2c1` [Example 409], the EC50 is greater than 800 nM.

The record behind these values is patent publication US12268694B2, “Combination pharmaceutical agents as RSV inhibitors” (Enanta Pharmaceuticals, Inc., priority 2017, dated 2025).
